Columns and labels:
[1] = biological target: Glycine receptor (alpha-1/beta) (Homo sapiens, UniProt P23415+P48167); assay: Positive allosteric modulation of human glycine alpha1beta receptor expressed in HEK293T cells assessed as glycine-induced increase in current response after 18 to 24 hrs by membrane potential blue dye based FLIPR assay; format: cell-based
[2] = biological target: T1, 5-hydroxytryptamine receptor 3A (Homo sapiens, UniProt P46098); assay: Inhibition of 5-HT3 receptor (unknown origin)
T1 sequence (P46098 whole entry): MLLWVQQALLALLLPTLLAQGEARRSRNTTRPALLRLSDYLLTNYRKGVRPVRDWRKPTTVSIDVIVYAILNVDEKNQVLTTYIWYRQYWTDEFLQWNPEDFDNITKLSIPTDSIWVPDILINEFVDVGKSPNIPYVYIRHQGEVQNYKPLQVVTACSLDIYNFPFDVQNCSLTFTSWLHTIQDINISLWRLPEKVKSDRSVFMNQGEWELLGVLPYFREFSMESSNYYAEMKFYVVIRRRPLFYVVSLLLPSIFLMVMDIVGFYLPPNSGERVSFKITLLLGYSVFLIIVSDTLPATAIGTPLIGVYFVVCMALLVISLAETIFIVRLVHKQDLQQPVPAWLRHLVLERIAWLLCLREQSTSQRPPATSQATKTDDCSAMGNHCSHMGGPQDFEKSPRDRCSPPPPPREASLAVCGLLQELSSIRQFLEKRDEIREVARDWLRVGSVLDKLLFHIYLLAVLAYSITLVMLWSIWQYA

[3] = biological target: T1, 5-hydroxytryptamine receptor 3A; assay: Agonist activity at 5-HT3 receptor (unknown origin)
[4] = biological target: T2, Neuronal acetylcholine receptor; alpha4/beta2 (Homo sapiens, UniProt P17787+P43681); assay: Agonist activity at alpha4beta2 nAChR (unknown origin); format: protein-complex assay
T2 sequence (P17787 whole entry): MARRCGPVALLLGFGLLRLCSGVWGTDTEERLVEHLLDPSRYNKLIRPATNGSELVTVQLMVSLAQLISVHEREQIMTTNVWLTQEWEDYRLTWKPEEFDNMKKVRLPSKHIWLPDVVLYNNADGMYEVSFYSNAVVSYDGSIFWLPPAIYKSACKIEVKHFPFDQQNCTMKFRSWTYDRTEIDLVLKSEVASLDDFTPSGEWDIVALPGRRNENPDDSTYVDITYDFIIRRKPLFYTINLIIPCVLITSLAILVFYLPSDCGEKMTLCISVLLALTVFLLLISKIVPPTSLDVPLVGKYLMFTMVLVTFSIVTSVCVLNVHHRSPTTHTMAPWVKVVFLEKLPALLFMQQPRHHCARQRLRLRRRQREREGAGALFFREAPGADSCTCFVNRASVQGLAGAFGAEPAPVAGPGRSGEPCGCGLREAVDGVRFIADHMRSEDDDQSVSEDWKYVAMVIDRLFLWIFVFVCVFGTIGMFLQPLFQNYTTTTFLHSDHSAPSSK
T2 sequence (P43681 whole entry): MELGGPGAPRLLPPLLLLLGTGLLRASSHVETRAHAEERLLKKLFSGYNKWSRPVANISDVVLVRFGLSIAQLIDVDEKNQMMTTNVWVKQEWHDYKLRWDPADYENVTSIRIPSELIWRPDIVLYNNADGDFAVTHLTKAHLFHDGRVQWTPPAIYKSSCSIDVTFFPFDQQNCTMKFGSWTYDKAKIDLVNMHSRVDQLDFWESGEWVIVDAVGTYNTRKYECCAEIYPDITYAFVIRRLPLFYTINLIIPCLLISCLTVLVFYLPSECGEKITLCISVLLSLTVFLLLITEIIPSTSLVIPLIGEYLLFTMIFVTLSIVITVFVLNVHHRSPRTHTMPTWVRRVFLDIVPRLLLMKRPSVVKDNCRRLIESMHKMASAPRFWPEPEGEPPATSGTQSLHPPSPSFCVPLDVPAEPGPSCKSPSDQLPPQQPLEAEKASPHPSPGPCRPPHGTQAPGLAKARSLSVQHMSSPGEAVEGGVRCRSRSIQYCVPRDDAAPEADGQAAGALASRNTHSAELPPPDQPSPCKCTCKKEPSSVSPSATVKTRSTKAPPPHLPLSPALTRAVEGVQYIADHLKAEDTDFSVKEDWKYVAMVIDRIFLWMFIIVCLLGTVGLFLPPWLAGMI

[5] = biological target: T3, Gamma-aminobutyric acid receptor subunit alpha-1/beta-3/gamma-2 (Mus musculus, UniProt P22723+P62812+P63080); assay: Inhibition of C57BL/6 mouse GABAA receptor alpha1beta3gamma2; format: protein-complex assay
T3 sequence (P22723 whole entry): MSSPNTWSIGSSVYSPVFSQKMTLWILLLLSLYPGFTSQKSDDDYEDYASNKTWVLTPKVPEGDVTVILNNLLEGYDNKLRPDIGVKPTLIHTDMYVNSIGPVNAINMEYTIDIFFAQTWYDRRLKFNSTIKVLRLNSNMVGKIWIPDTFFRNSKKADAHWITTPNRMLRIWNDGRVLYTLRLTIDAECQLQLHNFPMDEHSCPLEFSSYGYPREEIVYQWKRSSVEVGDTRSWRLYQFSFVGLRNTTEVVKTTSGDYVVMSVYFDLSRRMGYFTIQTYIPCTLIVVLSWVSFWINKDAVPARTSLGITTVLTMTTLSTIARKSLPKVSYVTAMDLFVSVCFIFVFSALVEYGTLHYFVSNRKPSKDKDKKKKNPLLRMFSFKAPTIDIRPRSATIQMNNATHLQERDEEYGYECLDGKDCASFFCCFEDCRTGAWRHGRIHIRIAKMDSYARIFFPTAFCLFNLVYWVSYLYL
T3 sequence (P62812 whole entry): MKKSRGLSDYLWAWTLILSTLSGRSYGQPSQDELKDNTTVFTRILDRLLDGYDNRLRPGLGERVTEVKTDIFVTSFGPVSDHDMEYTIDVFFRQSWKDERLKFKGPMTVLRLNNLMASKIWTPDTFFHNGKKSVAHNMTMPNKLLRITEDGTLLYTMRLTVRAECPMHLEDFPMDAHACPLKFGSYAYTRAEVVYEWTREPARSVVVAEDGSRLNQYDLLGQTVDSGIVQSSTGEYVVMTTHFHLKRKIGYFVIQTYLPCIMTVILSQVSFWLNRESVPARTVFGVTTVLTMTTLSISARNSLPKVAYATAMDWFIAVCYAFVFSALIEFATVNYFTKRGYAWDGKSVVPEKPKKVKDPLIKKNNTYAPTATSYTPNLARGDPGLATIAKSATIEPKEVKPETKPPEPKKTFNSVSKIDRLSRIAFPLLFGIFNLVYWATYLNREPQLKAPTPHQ
T3 sequence (P63080 whole entry): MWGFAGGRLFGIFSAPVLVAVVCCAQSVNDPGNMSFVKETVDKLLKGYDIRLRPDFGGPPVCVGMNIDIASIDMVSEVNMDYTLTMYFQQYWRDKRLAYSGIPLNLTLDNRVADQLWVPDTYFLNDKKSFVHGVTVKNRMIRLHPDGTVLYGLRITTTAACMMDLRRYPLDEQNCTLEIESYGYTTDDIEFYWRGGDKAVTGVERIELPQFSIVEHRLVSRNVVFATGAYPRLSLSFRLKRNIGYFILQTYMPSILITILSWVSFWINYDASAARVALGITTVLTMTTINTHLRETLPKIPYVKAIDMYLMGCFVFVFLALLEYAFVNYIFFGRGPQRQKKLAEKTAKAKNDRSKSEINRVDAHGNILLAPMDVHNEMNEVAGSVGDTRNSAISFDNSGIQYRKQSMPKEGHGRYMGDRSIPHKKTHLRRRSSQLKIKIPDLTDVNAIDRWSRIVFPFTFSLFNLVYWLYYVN

[6] = biological target: Gamma-aminobutyric acid receptor subunit alpha-1/beta-2/gamma-2 (Mus musculus, UniProt P22723+P62812+P63137); assay: Positive allosteric modulation of C57BL/6 mouse GABAA receptor alpha1beta2gamma2 assessed as increase in GABA-induced current response at -60 mV holding potential by whole cell patch-clamp method relative to GABA; format: protein-complex assay
Gamma-aminobutyric acid receptor subunit alpha-1/beta-2/gamma-2, sequence (P22723 whole entry): as the sequence (P22723 whole entry) above
Gamma-aminobutyric acid receptor subunit alpha-1/beta-2/gamma-2, sequence (P62812 whole entry): as the sequence (P62812 whole entry) above
Gamma-aminobutyric acid receptor subunit alpha-1/beta-2/gamma-2, sequence (P63137 whole entry): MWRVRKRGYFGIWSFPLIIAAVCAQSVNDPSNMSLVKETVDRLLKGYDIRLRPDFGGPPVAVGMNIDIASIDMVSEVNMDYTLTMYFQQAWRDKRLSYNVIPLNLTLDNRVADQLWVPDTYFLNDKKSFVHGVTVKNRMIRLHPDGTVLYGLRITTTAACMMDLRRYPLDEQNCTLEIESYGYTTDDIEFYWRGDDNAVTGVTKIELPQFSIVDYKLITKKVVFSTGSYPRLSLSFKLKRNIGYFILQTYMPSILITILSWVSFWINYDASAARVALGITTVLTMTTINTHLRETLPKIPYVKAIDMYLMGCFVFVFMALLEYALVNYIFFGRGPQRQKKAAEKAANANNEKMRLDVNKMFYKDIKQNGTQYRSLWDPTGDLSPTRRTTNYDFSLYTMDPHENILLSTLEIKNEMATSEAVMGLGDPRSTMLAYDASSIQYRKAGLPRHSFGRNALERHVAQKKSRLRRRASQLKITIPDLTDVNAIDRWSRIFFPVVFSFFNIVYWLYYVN

[7] = biological target: T4, Glycine receptor alpha-3/beta (Homo sapiens, UniProt O75311+P48167); assay: Positive allosteric modulation of human glycine alpha3beta receptor expressed in HEK293T cells assessed as potentiation of glycine-induced increase in current response after 18 to 24 hrs by membrane potential blue dye based FLIPR assay relative to glycine; format: cell-based
T4 sequence (O75311 whole entry): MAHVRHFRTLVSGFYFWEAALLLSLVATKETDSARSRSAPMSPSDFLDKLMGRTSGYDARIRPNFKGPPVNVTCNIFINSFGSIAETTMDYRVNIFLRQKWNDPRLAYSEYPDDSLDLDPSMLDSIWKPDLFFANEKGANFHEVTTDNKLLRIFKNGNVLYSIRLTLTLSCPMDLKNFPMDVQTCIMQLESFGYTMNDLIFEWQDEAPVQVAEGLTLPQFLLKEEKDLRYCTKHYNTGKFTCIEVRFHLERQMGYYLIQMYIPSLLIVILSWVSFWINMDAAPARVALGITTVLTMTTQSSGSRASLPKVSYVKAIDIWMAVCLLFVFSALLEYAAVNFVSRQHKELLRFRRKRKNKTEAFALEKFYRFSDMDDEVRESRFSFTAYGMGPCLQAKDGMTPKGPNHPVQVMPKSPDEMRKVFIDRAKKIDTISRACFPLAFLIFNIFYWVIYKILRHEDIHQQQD
T4 sequence (P48167 whole entry): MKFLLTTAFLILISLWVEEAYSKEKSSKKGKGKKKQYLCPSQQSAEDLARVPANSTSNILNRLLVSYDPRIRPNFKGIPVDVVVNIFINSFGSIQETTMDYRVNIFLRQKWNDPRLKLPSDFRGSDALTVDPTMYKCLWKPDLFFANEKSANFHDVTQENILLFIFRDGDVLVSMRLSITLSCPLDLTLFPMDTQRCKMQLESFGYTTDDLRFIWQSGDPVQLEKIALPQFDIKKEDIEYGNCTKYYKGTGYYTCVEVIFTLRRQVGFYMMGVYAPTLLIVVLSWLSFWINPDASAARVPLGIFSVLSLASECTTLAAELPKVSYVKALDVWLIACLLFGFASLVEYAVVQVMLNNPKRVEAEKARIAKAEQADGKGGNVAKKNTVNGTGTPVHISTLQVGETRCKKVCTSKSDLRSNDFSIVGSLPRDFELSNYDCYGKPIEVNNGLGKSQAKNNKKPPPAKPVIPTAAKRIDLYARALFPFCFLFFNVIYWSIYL

[8] = biological target: T4, Glycine receptor alpha-3/beta; assay: Positive allosteric modulation of human glycine alpha3beta receptor expressed in HEK293T cells assessed as glycine-induced increase in current response after 18 to 24 hrs by membrane potential blue dye based FLIPR assay; format: cell-based
[9] = biological target: T3, Gamma-aminobutyric acid receptor subunit alpha-1/beta-3/gamma-2; assay: Positive allosteric modulation of C57BL/6 mouse GABAA receptor alpha1beta3gamma2 assessed as increase in GABA-induced current response at -60 mV holding potential by whole cell patch-clamp method relative to GABA; format: protein-complex assay
[10] = biological target: T5, Glycine receptor subunit alpha-1 (Homo sapiens, UniProt P23415); assay: Positive allosteric modulation of human glycine alpha1 receptor expressed in HEK293T cells assessed as glycine-induced increase incurrent response after 18 to 24 hrs by membrane potential blue dye based FLIPR assay; format: cell-based
T5 sequence (P23415 whole entry): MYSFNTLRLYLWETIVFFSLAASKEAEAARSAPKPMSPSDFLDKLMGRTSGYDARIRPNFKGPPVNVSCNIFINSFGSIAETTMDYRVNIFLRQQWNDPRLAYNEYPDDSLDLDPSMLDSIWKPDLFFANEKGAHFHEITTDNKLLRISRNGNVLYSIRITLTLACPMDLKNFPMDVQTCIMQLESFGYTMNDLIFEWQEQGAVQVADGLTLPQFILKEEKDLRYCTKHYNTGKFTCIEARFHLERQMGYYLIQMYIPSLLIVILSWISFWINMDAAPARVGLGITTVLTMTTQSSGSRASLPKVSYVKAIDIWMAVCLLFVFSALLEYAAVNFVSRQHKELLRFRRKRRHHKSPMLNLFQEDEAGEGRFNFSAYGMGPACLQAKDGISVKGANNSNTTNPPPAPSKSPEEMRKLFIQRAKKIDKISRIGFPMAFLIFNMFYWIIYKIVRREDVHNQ

[11] = biological target: T2, Neuronal acetylcholine receptor; alpha4/beta2; assay: Inhibition of alpha4beta2 nAChR (unknown origin); format: protein-complex assay

Glycine receptor (alpha-1/beta), sequence (P48167 whole entry, one chain of several): as the sequence (P48167 whole entry) above

In the case of `C[C@H]1[C@H]2C(=O)N(C)c3ccncc3[C@H]2CN1S(=O)(=O)c1ccc2c(c1)OCO2`, the EC50 [1] is reported as 0.016 µM, the IC50 [2] is reported as over 30 µM and the EC50 [3] is reported as over 25 µM. It also gave an EC50 [4] of over 25 µM, an IC50 [5] of over 30 µM and an EC50 [6] of over 50 µM. The fold change (FC) [7] was 11, the EC50 [8] was 0.066 µM and the EC50 [9] was over 30 µM. For the same compound, the EC50 [10] was 0.032 µM and the IC50 [11] was over 25 µM.

— ChEMBL document CHEMBL4219030, “Progress in the discovery of small molecule modulators of the Cys-loop superfamily receptors” (Bioorg Med Chem Lett, 2017)
